Experimental data as given in article PMC11111691, “Cystine-knot peptide inhibitors of HTRA1 bind to a cryptic pocket within the active site region” (Nature Communications, 2024).
Positions of bridges follow the written chain, without caps; N, C: chain ends. Residues, ends and D or L forms follow the SMILES beside them.

Key:
MDCK monolayer = assay: MDCK trans-well cell permeability assay; type: in vitro ADME, canine; conditions: MDCK trans-well, apical to basolateral, up to 50 µM, 16 h, mass spectrometry
Experimental: We carried out a cell permeability study using a MDCK trans-well assay, which is commonly
used at Genentech for permeability screening of compounds . This assay measures the flux of test
compound (Papp, apparent permeability) across a MDCK monolayer from the apical to the
basolateral compartment over a 16 h period.
sensitive mass spectrometry method .
10x10-6 cm/s and compounds with Papp values of <1x10-6 cm/s are considered to be of low
Protocol of permeability assay:
Experiments were carried out as described (Chen et al. Evaluating the utility of canine Mdr1 knockout
Madin-Darby canine kidney I cells in permeability screening and efflux substrate determination, Mol
Cells were seeded in 96-well Corning Transwell plates (PET membrane, 1 µm pore size) at 75,000 cells
per well and grown in DMEM media supplemented with 10% FBS, 1% pen-strep and 1x Glutamax at
37C, 5% CO2 for 48 h to ensure monolayer formation. Stock solutions of the three CKPs 1B3, 1D3-ENI
and 1G10-ENI were diluted in Hank's Balanced Salt solution containing 25 mM HEPES, pH 7.4 and 25
µM of the monolayer integrity marker lucifer yellow. CKPs at a concentration of 50 µM were added to
the apical (donor) chamber and the CKP the apparent permeability (Papp) was determined by quantifying
the amount of CKP in the basolateral (receiver) chamber after 16 h incubation at 37C, 5% CO2. The
samples from the basolateral chamber were supplemented with the experiment analytical internal standard
(100 nM propranolol in 50% ACN:50% water with 0.1% formic acid) and then injected in a Sciex Zeno
TOF 7600 mass spectrometer using TOF/MS mode.

C32 melanoma cells = assay: Cell toxicity assay (CellTiter-Glo), C32; type: cell-based, human; conditions: 0.6-50 µM CKP, 24 h and 72 h, at least three independent experiments
Experimental: (§1) reduction at the highest CKP concentration of 50 µM after 72 h (see results below). The absence of cell toxicity is likely due to the inability of the CKPs to penetrate cell membranes, which was experimentally determined in response to another reviewer. Due to space limitations we have not […]
(§2) Protocol of cell toxicity assay (Figure above):
(§3) HeLa cells or C32 melanoma cells were passaged in DMEM media supplemented with 10% FBS, 1% pen-strep and 1x Glutamax using standard culture conditions (5% CO2, 90% humidity at 37°C). At approximately 95% confluence cells were trypsinized, seeded onto 96-well plates (Corning) at 10,000 cells/well and grown for 24 h. Cells were then incubated with the CKPs 3B3, 1D3-ENI and 1G10-ENI (0, 0.6, 1.9, 5.6, 16.7 and 50 µM) at 37°C for 24 h or for 72h. As a positive control we used staurosporine (STS; 1µM). Cell viability was measured using the CellTiter-Glo luminescent cell viability assay (Promega) on an Envision Multilabel plate reader. Average of at least three independent experiments ± S.D. were plotted in Prism 10. Two-way ANOVA was performed on each dataset and compared to no drug samples and no significant viability reductions were observed, except for some treatments at the […]

HeLa cells = assay: Cell toxicity assay (CellTiter-Glo), HeLa; type: cell-based
Experimental: as §1, §2, §3

HTRA3^PD/PDZ, HTRA3^FL = biological target: T1, HTRA3^PD/PDZ, HTRA3^FL (Homo sapiens, UniProt P83110); assay: H2-OPT selectivity assay, HTRA3; type: biochemical; conditions: 2 µM CKP (0.5 mM 7mer-ABP)
T1 construct: purchased Abcam (FL form); the PD/PDZ form was made in house in E. coli ab134450
Experimental: (§4) Assays with the fluorescence-quenched synthetic substrate Mca-IRRVSYSFK(Dnp)K (H2-OPT)[38],[60] were carried out essentially as described. CKP stock solutions in DMSO were diluted in TNC buffer (dilution series for IC50 determinations, or final concentration of 2 µM for selectivity assay or as indicated for HTRA1/4 mutants) and incubated with enzymes in 96-well black optical bottom plates for 60 min at 37 °C. For selectivity experiments we used the 7mer-ABP as inhibitor, which was incubated with the proteases for 15 min at 37 °C. A 10 mM stock solution of H2-OPT in DMSO was diluted with water, prewarmed at 37 °C and then added to the CKP-enzyme mixtures. The final concentrations in the reaction mixtures were: 1 nM HTRA1^FL, 3 nM HTRA1^PD/PDZ, 1 nM HTRA1^PD, 1 nM HTRA2^PD/PDZ, 3 nM HTRA3^FL, 60 nM HTRA3^PD/PDZ, 6 nM HTRA4^FL, 1 µM HTRA4^PD/PDZ, 1 nM mouse HTRA1^PD, 25 nM HTRA1^PD-A202Y, 1 µM HTRA4^PD/PDZ-Y200A, 0.5 mM 7mer-ABP, 5 µM H2-OPT, and 0.25% DMSO. The kinetics of substrate cleavage was measured at 37 °C on a SpectraMax M5 microplate reader with excitation of 328 nm and emission of 393 nm. The determined initial rates of cleavage were expressed as percent of control (DMSO control) after subtracting the baseline rates (without enzyme). IC50 values were determined by Sigmoidal 4PL modeling of multiple data points from serial dilutions of CKPs using Prism 9 software (GraphPad). […]

HTRA2^PD/PDZ = biological target: T2, HTRA2^PD/PDZ (Homo sapiens, UniProt O43464); assay: H2-OPT selectivity assay, HTRA2; type: biochemical; conditions: 1 nM HTRA2^PD/PDZ, 2 µM CKP (0.5 mM 7mer-ABP), 5 µM H2-OPT
T2 construct: Human HTRA2^PD/PDZ (A134-E458) was from R & D Systems; purchased R & D Systems 1458-HT-100
T2 sequence (O43464 134-458): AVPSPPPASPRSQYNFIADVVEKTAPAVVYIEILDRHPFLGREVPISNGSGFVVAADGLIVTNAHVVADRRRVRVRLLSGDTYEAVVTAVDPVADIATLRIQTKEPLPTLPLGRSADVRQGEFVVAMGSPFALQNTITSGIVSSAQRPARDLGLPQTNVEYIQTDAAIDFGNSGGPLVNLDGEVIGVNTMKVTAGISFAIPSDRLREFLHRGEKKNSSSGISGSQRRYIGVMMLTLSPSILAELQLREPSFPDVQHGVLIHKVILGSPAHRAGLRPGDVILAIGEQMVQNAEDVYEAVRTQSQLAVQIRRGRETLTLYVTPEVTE
Experimental: as §4

HTRA1^PD/PDZ = biological target: T3, HTRA1^PD/PDZ (Homo sapiens, UniProt Q92743); assay: H2-OPT selectivity assay, HTRA1^PD/PDZ; type: biochemical; conditions: 3 nM HTRA1^PD/PDZ, 2 µM CKP (0.5 mM 7mer-ABP), 5 µM H2-OPT
T3 construct: made in house; host or cells: E. coli
T3 sequence (Q92743 161-480): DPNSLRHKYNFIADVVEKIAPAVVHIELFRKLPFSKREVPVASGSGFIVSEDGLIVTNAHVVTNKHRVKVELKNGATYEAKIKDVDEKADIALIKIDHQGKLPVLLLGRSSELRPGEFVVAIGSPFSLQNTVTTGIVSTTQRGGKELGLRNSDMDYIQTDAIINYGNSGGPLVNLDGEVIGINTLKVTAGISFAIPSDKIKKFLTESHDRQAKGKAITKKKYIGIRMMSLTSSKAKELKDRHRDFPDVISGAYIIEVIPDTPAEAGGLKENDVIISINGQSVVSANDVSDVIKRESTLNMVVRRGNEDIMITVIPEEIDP
Experimental: as §4

Molecule | Cell permeability in the MDCK cell assay (MDCK monolayer) | Cell viability, C32 melanoma cells (C32 melanoma cells) | Viability reduction, HeLa cells, 24 h (HeLa cells; 50 µM CKP, 24 h) [%] | Viability reduction, HeLa cells, 72 h (HeLa cells; 50 µM CKP, 72 h) [%] | Cell viability, HeLa cells (HeLa cells; 0.6-50 µM CKP, 24 h and 72 h, at least three independent experiments) | Inhibition of HTRA3^FL, H2-OPT (% of control) (HTRA3^PD/PDZ, HTRA3^FL; 3 nM HTRA3^FL) | Inhibition of HTRA3^PD/PDZ, H2-OPT (% of control) (HTRA3^PD/PDZ, HTRA3^FL; 60 nM HTRA3^PD/PDZ, 5 µM H2-OPT) | Inhibition of HTRA2^PD/PDZ, H2-OPT (% of control) (HTRA2^PD/PDZ) | Inhibition of HTRA1^PD/PDZ, H2-OPT (% of control) (HTRA1^PD/PDZ)
CC[C@H](C)[C@H](NC(=O)[C@@H]1CCCN1C(=O)[C@H](CC(=O)O)NC(=O)[C@H](C)NC(=O)[C@@H](N)Cc1c[nH]cn1)C(=O)N[C@H]1CSSC[C@@H]2NC(=O)[C@H](Cc3ccccc3)NC(=O)[C@H](Cc3c[nH]c4ccccc34)NC(=O)[C@H](C)NC(=O)CNC(=O)[C@H](CO)NC(=O)[C@@H]3CSSC[C@@H](C(=O)NCC(=O)N4CCC[C@H]4C(=O)N[C@@H](Cc4ccc(O)cc4)C(=O)N[C@H](C(=O)NCC(N)=O)C(C)C)NC(=O)[C@H](CO)NC(=O)[C@H](Cc4c[nH]c5ccccc45)NC(=O)[C@H]([C@@H](C)O)NC(=O)[C@H](C)NC(=O)[C@H](Cc4ccc(O)cc4)NC(=O)[C@H](Cc4ccc(O)cc4)NC(=O)[C@H](CSSC[C@H](NC(=O)[C@@H]4CCCN4C(=O)[C@H](CCCCN)NC(=O)[C@H](CC(N)=O)NC1=O)C(=O)N[C@@H](CCCCN)C(=O)N[C@@H]([C@@H](C)O)C(=O)N[C@@H](Cc1c[nH]cn1)C(=O)N[C@@H](CC(=O)O)C(=O)N[C@@H](CC(=O)O)C(=O)N3)NC(=O)[C@H](C)NC(=O)[C@H](CCC(N)=O)NC2=O [3B3] (H-HADPICNKPCKTHDDCSGAWFCQACYYATWSCGPYVG-NH2; disulfide 6-22, 10-25, 16-32) | no detectable cell permeability | did not appreciably affect cell viability | 9 | 13 | did not appreciably affect cell viability |  |  |  | 
DPMFKLV-phosphonate [7mer-ABP] |  |  |  |  |  | significantly inhibited | significantly inhibited | significantly inhibited | significantly inhibited
